Test results reported in patent publication US4505853A, “Enzyme-resistant immunomodulatory peptides” (Ortho Pharmaceutical Corporation, priority 1983, dated 1985).
Where a SMILES comes first, the peptide text is derived from it. Where no end group is shown, it is not given here. [ ]: non-standard residue; d: D form. The star is where a group is joined. Ac5c = NC1(C(=O)O)CCCC1; For = O=C*

How the values were obtained:
[1] = test system: Leucine Amino Peptidase (LAP); assay: Leucine Amino Peptidase (LAP) Degradation, amino acid analysis; type: in vitro ADME; conditions: Asp, Pro, Val, Tyr, Arg all 0.00
Source text: Leucine Amino Peptidase (LAP) Degradation Asp, 0.00; Pro, 0.00; Val, 0.00; Tyr, 0.00; Arg.

[2] = test system: thymopoeitin receptor site (membrane glycoprotein of CEM cells); conditions: 2.3×10^-10 M of 125I-TP, 4 g of binding protein, incubation 12 h
[3] = biological target: T1, porcine LAPcytosol (Leucine Aminopeptidase) (Sus scrofa, UniProt P28839); assay: Stability of peptides against leucine aminopeptidase; type: in vitro ADME; conditions: 1 × 10^-3 M peptide and 3 units/ml porcine LAPcytosol in 50 mM Tris pH 8.5 buffer with 5 mM MgCl2 at 37°
T1 sequence (P28839 1-519): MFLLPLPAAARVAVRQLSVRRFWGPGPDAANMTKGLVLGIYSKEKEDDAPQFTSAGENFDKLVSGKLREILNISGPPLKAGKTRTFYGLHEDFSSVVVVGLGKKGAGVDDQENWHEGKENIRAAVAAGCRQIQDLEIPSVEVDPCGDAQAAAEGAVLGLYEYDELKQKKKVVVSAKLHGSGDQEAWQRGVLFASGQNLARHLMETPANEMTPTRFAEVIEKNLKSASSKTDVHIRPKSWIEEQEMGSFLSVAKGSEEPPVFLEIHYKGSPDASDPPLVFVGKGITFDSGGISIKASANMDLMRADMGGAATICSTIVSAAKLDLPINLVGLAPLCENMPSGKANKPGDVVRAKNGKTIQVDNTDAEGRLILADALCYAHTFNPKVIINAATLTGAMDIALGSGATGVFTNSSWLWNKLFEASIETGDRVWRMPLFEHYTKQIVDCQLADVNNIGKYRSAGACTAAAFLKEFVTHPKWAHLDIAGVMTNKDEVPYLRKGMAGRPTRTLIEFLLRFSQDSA
Procedure: (§1) It has been determined that the half-life of thymopentin (thymopoeitin fragment 32-36) in serum is approximately one minute.
*1 × 10^-3 M peptide and 3 units/ml porcine LAPcytosol in 50 mM
Tris pH 8.5 buffer with 5 mM MgCl2 at 37°

[4] = Stability of peptides against human serum; type: in vitro ADME; conditions: 1 μg/ml peptide in fresh human serum at 37°
Procedure: as §1
*1 μg/ml peptide in fresh human serum at 37°

[5] = biological target: T2, bovine carboxypeptidase A (Bos taurus, UniProt P00730); assay: Stability of peptides against carboxypeptidase A; type: in vitro ADME; conditions: 1 × 10^-3 M peptide and 0.05 units/ml bovine carboxypeptidase in pH 8.5 borate buffer at 37°
T2 sequence (P00730 111-419): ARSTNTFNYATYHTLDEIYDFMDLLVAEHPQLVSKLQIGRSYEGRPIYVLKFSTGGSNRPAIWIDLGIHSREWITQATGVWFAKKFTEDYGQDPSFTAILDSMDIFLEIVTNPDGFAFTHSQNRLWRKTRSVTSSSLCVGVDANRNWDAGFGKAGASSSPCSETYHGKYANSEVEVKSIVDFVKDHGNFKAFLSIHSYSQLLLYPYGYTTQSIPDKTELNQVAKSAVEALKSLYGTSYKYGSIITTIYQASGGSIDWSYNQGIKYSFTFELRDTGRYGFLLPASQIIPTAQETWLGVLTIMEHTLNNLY
Procedure: as §1
*1 × 10^-3 M peptide and 0.05 units/ml bovine carboxypeptidase
in pH 8.5 borate buffer at 37°

[6] = Enzymatic degradation / half-life in serum; type: in vitro ADME
Source text: as §1

Prothymocytes (Thy-1^-) = assay: Induction assay, Thy-1+ T cells; type: cell-based; conditions: B6-lyb-2.1 congenic mouse spleen cells, 3 hrs with inducer; controls without inducer <5% induced cells
Procedure: (§2) The compounds of the invention were tested following the induction assay procedure set out in Scheid, et al., J. Exp. Med. 147: 1727-1743 (1978) and also following a receptor assay procedure designed to measure displacement of radiolabelled thymopoeitin from a receptor site by the test peptides. A positive result on the induction assay indicates the ability of the test peptide to mimic the ability of thymopoeitin or splenin to induce precursor cells to immunocompetent T cells or T cells and B cells, respectively. A positive result on the receptor assay indicates the ability of the test peptide to bind to the thymopoeitin receptor site and thus to mimic thymopoeitin activity. The subject peptides are positive in the induction assay, while those in which X is ASP or D-ASP are also positive in the receptor assay.
(§3) The peptides of the invention wherein X is ASP or D-ASP are characterized by their ability to induce the selective differentiation of Thy-1^+ T cells (but not Lyb-2^+ B cells). Thy-1 is a differentiation alloantigen present on T cells but not B cells, whereas Lyb-2 is a differentiation alloantigen present on B cells but not T cells. Studies of these peptides in the induction assay in vitro show them to have the same induction specificity as thymopoietin. […]

pro-Lyb-2 cells = assay: Induction assay, Lyb-2+ B cells; type: cell-based; conditions: B6-lyb-2.1 congenic mouse spleen cells, 3 hrs with inducer; controls without inducer <5% induced cells
Procedure: as §2, §3

## CC(=O)N[C@@H](CCCNC(=N)N)C(=O)N1CCC[C@H]1C(=O)N[C@@H](CC(=O)O)C(=O)N[C@H](C(=O)N[C@H](Cc1ccc(O)cc1)C(=O)O)C(C)C [IX, Nα-Acetyl-Arginyl-Prolyl-Aspartyl-Valyl-D-Tyrosine] (Ac-RPDV[dY]-OH)
[1]
  amino acids liberated by Leucine Amino Peptidase (LAP): no liberated amino acids were detected

## CNC(=O)[C@H](Cc1ccc(O)cc1)NC(=O)[C@@H](NC(=O)[C@H](CC(=O)O)NC(=O)[C@@H]1CCCN1C(=O)[C@H](CCCNC(=N)N)NC(C)=O)C(C)C [N-α-acetyl-ARG-PRO-ASP-VAL-TYR-NHCH3, Nα-Acetyl-Arginyl-Prolyl-Aspartyl-Valyl-Tyrosine-N-Methylamide] (Ac-RPDVY-NHMe)
[2]
  displacement of 125I-TP relative to that caused by thymopoietin self-displacement at equivalent concentrations: ≥ 50%

## CC(C)[C@H](NC(=O)[C@H](CC(=O)O)NC(=O)[C@@H]1CCCN1C(=O)[C@H](CCCNC(=N)N)NC=O)C(=O)N[C@@H](Cc1ccc(O)cc1)C(=O)O [N-α-formyl-ARG-PRO-ASP-VAL-TYR-OH, N^α -Formyl-Arginyl-Prolyl-Aspartyl-Valyl-Tyrosine] (For-RPDVY-OH)
[2]
  displacement of 125I-TP relative to that caused by thymopoietin self-displacement at equivalent concentrations: ≥ 50%

## CC(C)[C@H](NC(=O)[C@H](CC(=O)O)NC(=O)C1(NC(=O)[C@@H](N)CCCNC(=N)N)CCCC1)C(=O)N[C@@H](Cc1ccc(O)cc1)C(=O)O [NH2 --Arg--Cle--Asp--Val--Tyr--OH, Arginyl-Cycloleucyl-Aspartyl-Valyl-Tyrosine] (H-R[Ac5c]DVY-OH)
[3]
  Incubation time required for 50% degradation: > 1400 min

## C[C@H](N)C(=O)NCC(=O)N[C@H]1CSSC[C@@H](C(=O)O)NC(=O)[C@H](CO)NC(=O)[C@H]([C@@H](C)O)NC(=O)[C@H](Cc2ccccc2)NC(=O)[C@H]([C@@H](C)O)NC(=O)[C@H](CCCCN)NC(=O)[C@H](Cc2c[nH]c3ccccc23)NC(=O)[C@H](Cc2ccccc2)NC(=O)[C@H](Cc2ccccc2)NC(=O)[C@H](CC(N)=O)NC(=O)[C@H](CCCCN)NC1=O [somatostatin, reference compound]
[2]
  displacement of 125I-TP / receptor assay result, in words: no detectable displacement

## ACTH: adrenocorticotropic hormone (SYSMEHFRWGKPVGKKRRPVKVYPNGAEDESAEAFPLEF; Corticotropin; UniProt P01189 138-176, looked up) [reference compound]
[2]
  displacement of 125I-TP / receptor assay result, in words: no detectable displacement

## Ac-RPDAY [N-α-acetyl-ARG-PRO-ASP-ALA-TYR-OH, Nα-Acetyl-Arginyl-Prolyl-Aspartyl-Alanyl-Tyrosine]
[2]
  displacement of 125I-TP relative to that caused by thymopoietin self-displacement at equivalent concentrations: ≥ 50%

## Ac-RPDEY [N-α-acetyl-ARG-PRO-ASP-GLU-TYR-OH, N^α -Acetyl-Arginyl-Prolyl-Aspartyl-Glutamyl-Tyrosine]
[2]
  displacement of 125I-TP relative to that caused by thymopoietin self-displacement at equivalent concentrations: ≥ 50%

## Ac-RPDQY [N-α-acetyl-ARG-PRO-ASP-GLN-TYR-OH, Nα-acetyl-Arginyl-Prolyl-Aspartyl-Glutaminyl-Tyrosine]
[2]
  displacement of 125I-TP relative to that caused by thymopoietin self-displacement at equivalent concentrations: ≥ 50%

## Ac-RPDVY [N--Acetyl-Arg--Pro--Asp--Val--Tyr--OH, Nα-Acetyl-Arginyl-Prolyl-Aspartyl-Valyl-Tyrosine]
[4]
  Incubation time required for 50% degradation: 38 min
[2]
  displacement of 125I-TP relative to that caused by thymopoietin self-displacement at equivalent concentrations: ≥ 50%

## Ac-RPDVY-NH2 [N--Acetyl-Arg--Pro--Asp--Val--Tyr--NH2, N^α -acetyl-Arginyl-Prolyl-Aspartyl-Valyl-Tyrosine amide]
[4]; at 30 minutes
  Degradation in human serum, in words: no degradation
[2]
  displacement of 125I-TP relative to that caused by thymopoietin self-displacement at equivalent concentrations: ≥ 50%
[5]
  Incubation time required for 50% degradation: > 1500 min
[3]
  Incubation time required for 50% degradation: > 1400 min

## CRF: corticotropin-releasing factor (SEEPPISLDLTFHLLREVLEMARAEQLAQQAHSNRKLMEII; ends and bridges not checked; UniProt P06850 154-194, looked up) [reference compound]
[2]
  displacement of 125I-TP / receptor assay result, in words: no detectable displacement

## RKDVY [NH2 --Arg--Lys--Asp--Val--Tyr--OH, reference compound]
[4]
  Incubation time required for 50% degradation: 1.5 min
[6]; serum
  half-life in serum: approximately one
[5]
  Incubation time required for 50% degradation: 18 min
[3]
  Incubation time required for 50% degradation: 15 min

## RKEVY [Splenopentin]
[6]
  susceptibility to enzymatic degradation: highly susceptible to enzymatic degradation

## RPDVY [NH2 --Arg--Pro--Asp--Val--Tyr--OH]
[3]
  Incubation time required for 50% degradation: 230 min

## RPDVY-NH2 [NH2 --Arg--Pro--Asp--Val--Tyr--NH2, Arginyl-Prolyl-Aspartyl-Valyl-Tyrosinamide]
[4]
  Incubation time required for 50% degradation: > 20 min
[2]
  displacement of 125I-TP relative to that caused by thymopoietin self-displacement at equivalent concentrations: ≥ 50%
[5]
  Incubation time required for 50% degradation: > 450 min

## YRKDV [NH2 -TYR-ARG-LYS-ASP-VAL-OH]
Prothymocytes (Thy-1^-)
  induction of Thy-1^+ cells (T cells): no induction
pro-Lyb-2 cells
  induction of Lyb-2.1^+ cells (B cells): no induction

## growth hormone: comparison peptide in the receptor assay [reference compound]
[2]
  displacement of 125I-TP / receptor assay result, in words: no detectable displacement

## ubiquitin [reference compound]
[2]
  displacement of 125I-TP / receptor assay result, in words: no detectable displacement

## β-endorphin: comparison peptide in the receptor assay (YGGFMTSEKSQTPLVTLFKNAIIKNAYKKGE; Beta-endorphin; UniProt P01189 237-267, looked up) [reference compound]
[2]
  displacement of 125I-TP / receptor assay result, in words: no detectable displacement
